Source: patent publication US20080139648A1, “Product Containing Prostaglandin Having Fluorine Atom In Its Molecule” (Santen Pharmaceutical Co., Ltd., priority 2004, published 2008)

Assay: storage stability test of eye drop in resin container (content by HPLC)
Assay type: physicochemical
Source text: The content of the present prostaglandin derivative refers to the ratio (%) of the concentration of the present prostaglandin derivative existing in the aqueous liquid preparation after a predetermined period of time to the original concentration of the present prostaglandin derivative existing in the aqueous liquid preparation when the prostaglandin-containing product is produced throughout the claims and the specification. For example, in the case where the present prostaglandin derivative is dissolved in water, it refers to the ratio (%) of the concentration of the present prostaglandin derivative existing in the aqueous solution after a predetermined period of time to the concentration of the present prostaglandin derivative dissolved in water.
A 5-ml eye drop resin container was obtained by injection blow molding of a propylene/ethylene random copolymer (containing an ethylene component in an amount of 3%).
The resin container obtained in the section of “2. Production of Resin Container” was subjected to a sterilization treatment with ethylene oxide gas (sterilization with ethylene oxide at a concentration of 20% (v/v), at a temperature of 40° C. and a relative humidity of 50% for 3 hours), and then, in the container, Eye drop 1 obtained in the section of “1. Preparation of Eye Drop” was charged. […] The concentration of the present compound in the container was measured by high performance liquid chromatography before the initiation of storage and after 30-day storage. The content of the present compound was calculated taking the concentration of the present compound at the time of initiation of storage as a standard (100%). Incidentally, each value in Table 1 is expressed as an average of three cases.
Except that the sterilization treatment with ethylene oxide gas was altered into a sterilization treatment with gamma rays (32 kGy), the content of the present compound was calculated in the same manner as in Example 1.
Except that the sterilization treatment with ethylene oxide gas was altered into a sterilization treatment with electron rays (23 kGy), the content of the present compound was calculated in the same manner as in Example 1.
Except that a container with no sterilization treatment was used as the container, the content of the present compound was calculated in the same manner as in Example 1.
Except that Eye drop 1 was altered into Eye drop 2, the content of latanoprost was calculated in the same manner as in Example 1.
Except that Eye drop 1 was altered into Eye drop 2 and the sterilization treatment with ethylene oxide gas was altered into a sterilization treatment with gamma rays (32 kGy), the content of latanoprost was calculated in the same manner as in Example 1. […]

[1] = sterilized container compared with container with no sterilization treatment

| content in the eye drop (container sterilized with gamma rays, electron rays or ethylene oxide gas) | content in the eye drop after a predetermined period of time [1] | content in the eye drop after a predetermined period of time (ethylene oxide gas sterilized container in comparison with gamma-ray or electron-ray sterilized container) | Structure (SMILES) |
| --- | --- | --- | --- |
| did not decrease | comparable |  | CC(C)OC(=O)CCC/C=C\C[C@@H]1[C@@H](CC[C@@H](O)CCc2ccccc2)[C@H](O)C[C@@H]1O [latanoprost, 13,14-dihydro-17-phenyl-18,19,20-trinor-prostaglandin F2α isopropyl ester] |
|  | comparable | higher | CC(C)OC(=O)CCC/C=C\C[C@@H]1[C@@H](/C=C/C(F)(F)COc2ccccc2)[C@H](O)C[C@@H]1O [present compound, 16-phenoxy-15-deoxy-15,15-difluoro-17,18,19,20-tetranor-prostaglandin F2α isopropyl ester] |
